# Experimental data as given in paper PMC10520499, “Next step in the development of mesoprogestins: the preclinical profile of EC313” (Frontiers in Endocrinology, 2023).
# Where “and” joins values, the source holds several entries; their conditions need not be identical. Identical values can stand only once. Marks after values point to notes of the source that are not given here.
# Columns and labels:
# human PRA = human PRA (Homo sapiens, UniProt P06401); assay: PR-A transactivation (CHO, MMTV-LUC); format: cell-based
# Description: Due to the existence of two isoforms of the PR receptor (PRA and PRB) and the fact that both of them control expression of a largely different set of genes, separate assays for each of them were carried out.
# In order to develop the transfection assay, plasmids were generated and isolated. Plasmids included vectors with the coding sequences for the receptor as well as the reporter gene, respectively. The vector pcDNA3.1 coding sequence for the full length of human PRA and PRB (cDNA ORF clone in pcDNA3.1+/C-(K)-DYK) was used as an expression vector for PR isoform A and B, respectively. Vector pGL4.36 coding for the progesterone responsive element MMTV and firefly luciferase reporter vector [luc2P/Hygro] were used as reporter systems (pGL4.36-MMTV/LUC).
# A sufficient transactivation signal was achieved using stable transfection for the human PRA and PRB receptors and transient transfection for the MMTV-luciferase reporter gene. Therefore, the first stable transfection with the receptor of interest was performed. Thus, 0.5x10^6 CHO cells per well were plated into 6-well plates in transfection medium w/o antibiotics (RPMI phenol-free, 10% FBS,2mM L-glutamine). When the cells reached 80% confluency, transfection with receptor using FuGENE 6 in Opti-MEM medium was accomplished according to the manufacturer’s instruction. After 48h of transfection, stably transfected cells were cultured in a growth medium containing an antibiotic (G418 500 µg/mL). Only cells with the resistance gene (resistance to G418), which had been transfected together with the DNA for PRA and PRB were able to grow in this medium. Consequently, growing cell clones were selected for further steps as stable transfectants. The CHO cells stably transfected with the expression of PRA or PRB were transiently transfected with promoter MMTV/LUC vectors. […]
# After 24h incubation of cells with tested compounds, luciferase activity was measured using a VICTOR™ X Multilabel Plate Reader -Perkin Elmer.
# PR-B – NCoR = molecular target: T1, PR-B – NCoR (Homo sapiens, UniProt P06401); assay: PR-B – NCoR interaction, two-hybrid system; format: cell-based
# T1 construct: expressed in transfected cells
# Text: The active recruitment of the nuclear corepressor NCoR results in transcriptional inactivity of the PR. So, the potency of PR ligands to induce the interaction of PR with NCoR provides information on the antagonistic potency of the ligand. Therefore, the capacity of EC313 to induce the interaction of PR-B with the corepressor NCoR in comparison with reference ligands was studied. All test compounds except the receptor agonist Promegestone induced PR to interact with NCoR.
# Figure 11 (A) PR-B interaction with NCoR using a two-hybrid assay. Dose response curve. […] (B) Liganded PR-Binteraction with c-SRC kinase. The data presented are from five independent experiments. Signals are represented as mean luminescence ± SD normalized to maximal promegestone activity equal to 100%.
# pregnant guinea pigs = assay: Abortive activity in pregnant guinea pigs; format: in vivo, guinea pig; conditions: 30 mg/animal/day s.c., pregnancy days 43 and 44
# Description: In female animals, the second day of vaginal opening in the mating cycle was defined as day 1 of pregnancy (pregnancy length approx. 62 days). They were treated on days 43 and 44 by subcutaneous (s.c.) injection of the proprietary compounds EC312, EC313, EC323, and EC328 as well as UPA. All tested compounds were synthesized in Evestra Inc. The dose levels administered were 3, 10, and 30 mg/animal/day. The external genital organs were inspected for the presence of vaginal bleeding and fetal membranes (twice daily). The presence of expelled fetuses and placentae in the cages was also recorded at each inspection.
# The animals were sacrificed on day 50 using CO2. Both uterine horns were dissected and their contents were inspected. Fresh corpora lutea (CL) were evidence of a recent ovulation.
# human Erα = molecular target: T2, human Erα (Homo sapiens, UniProt P03372); assay: ERα transactivation (CHO, ERE-LUC); format: cell-based
# T2 construct: host or cells: CHO, transient co-transfection
# Description: The CHO cell line was selected to express estrogen α and β protein and the gene expression under the tested compounds stimulation was analyzed. The co-transfection with vector encoding the human full-length steroid receptors hERα and hERβ and reporter vector ERE/LUC was performed. Transient and stable transfectants with protein overexpression were induced by tested compounds (17β-estradiol or EC313) or the mixture: estradiol and appropriate range of concentration of EC313. Agonist and antagonist properties of EC313 toward tested receptor ERα and ERβ were analyzed using luminescence detection.
# Plasmid included vectors coding sequences for the receptor as well as the reporter gene. […]
# The ability of EC313 to agonize and/or antagonize ER receptor expression was analyzed in the following test system: co-transfected CHO cells were stimulated with estradiol (0.009 nM - 1200 nM) and EC313 (0.009 nM - 1200 nM) for detection agonistic activity. The antagonistic activity was assessed during the competitive interaction between EC313 (0.009 nM - 1200nM) and an appropriate concentration of estradiol (see Table 3 ). […] After incubating the cells for 24h with the tested compounds, the luminescent signal generated by the luciferase activity was detected.
# [1] = molecular target: T3, hGR-LBD purified recombinant protein (Homo sapiens, UniProt P04150); assay: Competitive binding, GR ligand binding domain
# T3 construct: purchased Thermo Fisher Scientific
# T3 sequence (P04150 524-758 limits assumed): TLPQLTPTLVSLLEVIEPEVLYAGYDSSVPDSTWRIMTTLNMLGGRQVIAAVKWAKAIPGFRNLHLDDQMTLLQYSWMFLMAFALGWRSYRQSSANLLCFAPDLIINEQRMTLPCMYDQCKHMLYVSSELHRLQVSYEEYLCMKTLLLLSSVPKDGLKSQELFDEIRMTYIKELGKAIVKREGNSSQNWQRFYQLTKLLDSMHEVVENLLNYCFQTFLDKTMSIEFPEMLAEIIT
# Description: The study aimed to characterize the competitive binding profile of EC313 to relevant human nuclear receptors. For the assays, commercially available ‘ligand binding domain’ proteins were purchased (Thermo Fisher Scientific). In addition, the full-length receptor proteins were expressed in transfected HI insect cells using the `Bac-to-bac Baculovirus expression system´ (Thermo Fisher Scientific). Cellular lysates served as receptor preparation. Receptor protein preparations were incubated with tritiated reference ligands and EC313 or reference steroids at concentrations between 0.1 and 1000 nM for 2h at 4°C to reach equilibrium. Subsequently, unbound steroids were adsorbed to dextran-coated charcoal (Sigma Aldrich), separated by filtration, and the remaining radioactivity was quantified in a ß-counter (Perkin Elmer). Displacement curves were fitted using the GraphPad Prism 7 free version to obtain EC50 values. Relative binding affinity (RBA [%], (C50ref/C50test)*100) and the competition coefficient (C50test/C50ref) were used to describe the relative binding potency of EC313 compared to the reference ligands.
# [2] = tested on: estrogen-primed endometrium of immature rabbits; assay: McPhail assay, estrogen-primed rabbit endometrium; format: in vivo
# Description: The secretory transformation of estrogen-primed endometrium of immature rabbits indicates the strength of the progestagenic action on the endometrium of the chosen test compound. The simultaneous administration of test compounds with progesterone can indicate potential anti-progestagenic actions.
# Female rabbits received daily s.c. injections of 5.0 µg 17β-Estradiol/per animal for 6 days leading to the proliferation of the endometrium. From day 7 to day 13 the animals received doses of vehicle, EC313 (1 to 30 mg/animal/day s.c) or progesterone. On day 14, the animals were sacrificed and the uteri were processed for histological evaluation and the secretory endometrial transformation was rated according to a modified McPhail score (1 – 4).
# The rating scale ranges from 1 (no or very low secretory, transformation, or agonistic activity) to 4 (highest secretory, transformation, or agonistic activity). The McPhail score of 2 (median) was selected for the comparison. The antagonistic activity was measured by the concomitant administration of progesterone ([…] s.c.).
# [3] = GR-LBD, EC313 relative to Dexamethasone
# T1 sequence (P06401 whole entry): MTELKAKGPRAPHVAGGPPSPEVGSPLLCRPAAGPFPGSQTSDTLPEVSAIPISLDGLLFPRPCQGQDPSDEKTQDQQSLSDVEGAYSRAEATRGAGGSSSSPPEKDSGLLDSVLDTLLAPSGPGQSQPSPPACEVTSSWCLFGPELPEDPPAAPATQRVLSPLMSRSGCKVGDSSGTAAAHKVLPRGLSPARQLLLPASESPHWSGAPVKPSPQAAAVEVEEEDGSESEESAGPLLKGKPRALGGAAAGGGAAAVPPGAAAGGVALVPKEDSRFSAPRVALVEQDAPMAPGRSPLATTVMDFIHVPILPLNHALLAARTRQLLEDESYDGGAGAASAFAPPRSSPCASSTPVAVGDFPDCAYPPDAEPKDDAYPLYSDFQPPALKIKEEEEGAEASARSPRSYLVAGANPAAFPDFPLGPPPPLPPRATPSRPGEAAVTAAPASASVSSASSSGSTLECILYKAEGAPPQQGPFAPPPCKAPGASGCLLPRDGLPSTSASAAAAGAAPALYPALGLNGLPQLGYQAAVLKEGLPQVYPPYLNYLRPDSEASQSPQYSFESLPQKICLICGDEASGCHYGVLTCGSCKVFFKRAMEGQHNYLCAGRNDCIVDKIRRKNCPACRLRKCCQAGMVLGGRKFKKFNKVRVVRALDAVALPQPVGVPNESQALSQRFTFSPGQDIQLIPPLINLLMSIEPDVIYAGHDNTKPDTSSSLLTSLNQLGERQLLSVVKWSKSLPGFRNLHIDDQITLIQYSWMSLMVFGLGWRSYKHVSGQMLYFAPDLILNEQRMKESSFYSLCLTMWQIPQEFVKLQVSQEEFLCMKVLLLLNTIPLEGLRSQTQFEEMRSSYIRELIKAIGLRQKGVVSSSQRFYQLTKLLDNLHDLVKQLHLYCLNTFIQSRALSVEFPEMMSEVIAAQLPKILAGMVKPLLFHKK
# T1 sequence (O75376 whole entry partner): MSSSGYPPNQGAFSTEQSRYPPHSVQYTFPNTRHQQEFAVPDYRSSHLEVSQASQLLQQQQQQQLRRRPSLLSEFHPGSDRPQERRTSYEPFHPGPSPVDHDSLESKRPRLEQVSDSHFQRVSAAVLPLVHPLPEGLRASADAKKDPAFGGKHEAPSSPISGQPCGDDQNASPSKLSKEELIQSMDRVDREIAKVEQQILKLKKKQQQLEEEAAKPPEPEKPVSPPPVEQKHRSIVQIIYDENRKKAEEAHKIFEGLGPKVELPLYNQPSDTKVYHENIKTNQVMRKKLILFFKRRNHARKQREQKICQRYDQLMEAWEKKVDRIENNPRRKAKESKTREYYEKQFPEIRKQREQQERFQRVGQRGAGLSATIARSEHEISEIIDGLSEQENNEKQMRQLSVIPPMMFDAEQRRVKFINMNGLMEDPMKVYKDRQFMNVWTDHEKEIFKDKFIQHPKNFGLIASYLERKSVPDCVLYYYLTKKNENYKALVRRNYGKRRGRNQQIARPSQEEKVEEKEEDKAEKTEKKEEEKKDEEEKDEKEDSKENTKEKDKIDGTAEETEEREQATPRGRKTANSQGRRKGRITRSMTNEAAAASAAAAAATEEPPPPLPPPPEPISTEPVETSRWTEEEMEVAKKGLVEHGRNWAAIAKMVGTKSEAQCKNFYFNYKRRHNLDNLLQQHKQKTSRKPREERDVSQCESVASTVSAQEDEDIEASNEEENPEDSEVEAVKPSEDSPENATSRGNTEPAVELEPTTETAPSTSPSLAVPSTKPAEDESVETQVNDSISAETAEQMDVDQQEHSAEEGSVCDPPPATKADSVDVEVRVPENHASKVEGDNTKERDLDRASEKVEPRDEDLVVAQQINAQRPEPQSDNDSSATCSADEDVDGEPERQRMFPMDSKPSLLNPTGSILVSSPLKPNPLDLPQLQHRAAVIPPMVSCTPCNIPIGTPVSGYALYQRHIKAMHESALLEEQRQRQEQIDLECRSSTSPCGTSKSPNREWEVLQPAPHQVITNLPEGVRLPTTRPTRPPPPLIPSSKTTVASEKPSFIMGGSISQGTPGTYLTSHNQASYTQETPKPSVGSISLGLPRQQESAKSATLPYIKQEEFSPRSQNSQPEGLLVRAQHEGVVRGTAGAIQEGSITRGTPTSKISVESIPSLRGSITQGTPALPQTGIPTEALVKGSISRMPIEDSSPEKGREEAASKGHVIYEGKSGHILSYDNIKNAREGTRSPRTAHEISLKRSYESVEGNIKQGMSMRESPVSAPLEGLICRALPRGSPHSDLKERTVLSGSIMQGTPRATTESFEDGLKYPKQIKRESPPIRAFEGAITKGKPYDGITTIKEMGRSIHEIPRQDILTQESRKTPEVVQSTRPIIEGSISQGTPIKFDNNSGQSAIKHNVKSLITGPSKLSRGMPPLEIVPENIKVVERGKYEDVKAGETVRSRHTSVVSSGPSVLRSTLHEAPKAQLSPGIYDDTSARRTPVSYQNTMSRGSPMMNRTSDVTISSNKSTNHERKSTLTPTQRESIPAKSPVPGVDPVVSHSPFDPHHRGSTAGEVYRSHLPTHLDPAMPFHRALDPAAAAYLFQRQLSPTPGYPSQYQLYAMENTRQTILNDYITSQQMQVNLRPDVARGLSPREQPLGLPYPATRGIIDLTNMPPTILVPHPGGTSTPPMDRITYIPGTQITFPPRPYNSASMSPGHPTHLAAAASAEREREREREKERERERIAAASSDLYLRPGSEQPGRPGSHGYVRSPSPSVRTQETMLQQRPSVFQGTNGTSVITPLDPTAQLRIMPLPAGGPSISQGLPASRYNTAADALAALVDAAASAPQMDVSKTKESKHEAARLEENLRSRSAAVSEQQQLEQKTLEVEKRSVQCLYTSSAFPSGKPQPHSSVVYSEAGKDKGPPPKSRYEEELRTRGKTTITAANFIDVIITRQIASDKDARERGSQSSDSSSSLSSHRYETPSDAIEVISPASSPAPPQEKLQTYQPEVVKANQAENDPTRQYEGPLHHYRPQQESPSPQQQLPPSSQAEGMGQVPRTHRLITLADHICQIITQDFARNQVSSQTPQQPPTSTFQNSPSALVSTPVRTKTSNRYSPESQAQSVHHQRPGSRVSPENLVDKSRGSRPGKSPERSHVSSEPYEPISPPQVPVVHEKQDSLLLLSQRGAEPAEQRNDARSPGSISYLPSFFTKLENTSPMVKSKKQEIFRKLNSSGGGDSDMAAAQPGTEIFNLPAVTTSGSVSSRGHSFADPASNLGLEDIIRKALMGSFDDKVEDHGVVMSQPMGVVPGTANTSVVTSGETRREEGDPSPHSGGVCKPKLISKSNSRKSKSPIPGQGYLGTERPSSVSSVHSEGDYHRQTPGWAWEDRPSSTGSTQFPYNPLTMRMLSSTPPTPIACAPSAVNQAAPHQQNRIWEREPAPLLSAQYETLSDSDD
# Sequence of human PRA (P06401 165-933): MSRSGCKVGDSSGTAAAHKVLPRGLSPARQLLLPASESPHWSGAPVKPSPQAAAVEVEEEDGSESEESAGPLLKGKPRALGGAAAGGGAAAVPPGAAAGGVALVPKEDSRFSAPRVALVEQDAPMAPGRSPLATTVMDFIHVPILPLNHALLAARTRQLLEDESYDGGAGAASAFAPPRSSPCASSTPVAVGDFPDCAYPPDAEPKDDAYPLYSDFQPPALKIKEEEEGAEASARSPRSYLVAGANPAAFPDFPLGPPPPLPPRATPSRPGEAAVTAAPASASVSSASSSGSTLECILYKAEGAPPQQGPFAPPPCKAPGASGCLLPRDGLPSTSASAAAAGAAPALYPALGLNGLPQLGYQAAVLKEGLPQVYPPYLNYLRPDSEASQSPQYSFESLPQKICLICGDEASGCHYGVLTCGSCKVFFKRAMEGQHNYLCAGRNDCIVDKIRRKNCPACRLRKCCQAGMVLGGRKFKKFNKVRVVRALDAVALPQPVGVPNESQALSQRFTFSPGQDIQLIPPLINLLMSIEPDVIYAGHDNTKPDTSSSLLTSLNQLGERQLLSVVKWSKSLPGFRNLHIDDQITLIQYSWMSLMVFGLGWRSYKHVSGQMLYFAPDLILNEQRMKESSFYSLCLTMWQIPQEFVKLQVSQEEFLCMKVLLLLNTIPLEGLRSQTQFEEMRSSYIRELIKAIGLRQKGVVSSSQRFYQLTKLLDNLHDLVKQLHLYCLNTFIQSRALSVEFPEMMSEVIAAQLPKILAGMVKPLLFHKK
# T2 sequence (P03372 whole entry): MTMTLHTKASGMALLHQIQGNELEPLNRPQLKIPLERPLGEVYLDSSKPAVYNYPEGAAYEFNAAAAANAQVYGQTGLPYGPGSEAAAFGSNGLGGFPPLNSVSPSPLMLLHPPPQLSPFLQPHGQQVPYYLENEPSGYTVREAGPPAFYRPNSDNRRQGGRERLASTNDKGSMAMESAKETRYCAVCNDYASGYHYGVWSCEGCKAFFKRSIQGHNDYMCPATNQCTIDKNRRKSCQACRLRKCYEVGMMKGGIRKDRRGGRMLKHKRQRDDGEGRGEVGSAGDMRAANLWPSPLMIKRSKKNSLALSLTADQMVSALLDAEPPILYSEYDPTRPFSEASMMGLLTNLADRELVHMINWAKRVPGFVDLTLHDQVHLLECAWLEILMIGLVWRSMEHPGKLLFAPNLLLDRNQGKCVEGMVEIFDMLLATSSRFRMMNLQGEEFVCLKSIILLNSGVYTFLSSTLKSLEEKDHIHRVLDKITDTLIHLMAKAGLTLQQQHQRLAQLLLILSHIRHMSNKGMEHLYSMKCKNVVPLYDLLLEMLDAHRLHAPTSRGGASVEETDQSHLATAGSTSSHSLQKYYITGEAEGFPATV
compound,measurement,setting,value
C[C@]12C[C@H](c3ccc(-c4ccoc4)cc3)C3=C4CCC(=O)C=C4CC[C@H]3[C@@H]1CC[C@]21OCCC1=C(F)F [EC313],IC50,"human PRA; Promegestone 35 nM, read-out: IC50, antagonism of Promegestone-induced reporter gene expression",7.96 nM and 8 nM
same,EC50,"human PRA; weak agonistic activity, in the range of the maximum concentration tested",~1000 nM
same,"efficacy relative to Ulipristal acetate, NCoR interaction",PR-B – NCoR,83%
same,"fold lower potency than Ulipristal acetate, NCoR interaction",PR-B – NCoR,200 fold
same,induction of PR interaction with NCoR,PR-B – NCoR,limited ability to induce progesterone receptor interaction with NCoR
same,expulsion of uterine contents / fetal expulsions (animals),pregnant guinea pigs,No fetal expulsions
same,agonistic or antagonistic activity,human Erα,no agonistic or antagonistic activity
same,Comp. Coefficient,[1]; [3],2 and 1.7
same,RBA,[1]; [3],60%
same,IC50,[1]; hGR-LBD purified recombinant protein,19.1 ± 0.9 nM
same,Quotient between antagonistic and agonistic action,[2]; McPhail score 2 doses,~ 10.0*
same,"maximal effect, McPhail score (average per treatment group)","[2]; agonistic, 1 to 30 mg/animal/day s.c., scale 1-4",≤ 2.5
same,Score 2 for PR-agonistic activity,[2]; dose giving McPhail score 2,~ 1.0 mg/animal/day s.c.
same,Score 2 for PR-antagonistic activity,"[2]; dose giving McPhail score 2, concomitant progesterone (1 g/animal/day [sic] s.c.)",~ 10.0 mg/animal/day s.c.
same,relatively more agonistic than antagonistic effects in comparison with Asoprisnil,"[2]; rabbit, in vivo",approx. 7 times
